Patent US20230012368A1 (Hoffmann-La Roche Inc., priority 2018, published 2023)
Where a name gives a salt, the structure may show the parent alone.

Tested on: Acinetobacter baumannii ATCC 17978
Assay: Antimicrobial susceptibility testing: 90% growth inhibitory concentration (IC90) determination
Assay type: cell-based
Conditions: 90% growth inhibitory concentration; Acinetobacter baumannii ATCC17978; Iso-Sensitest broth, OD 600 nm over 16h; read-out: ATCC17978 IC90
Procedure, shortened: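 Growth of the Acinetobacter baumannii strain was followed by optical density at 600 nm every 20 minutes for 16h at 35±2° C. Inoculum was ~5×10^(5) CFU/ml in Iso-Sensitest medium, with twofold compound dilutions (e.g. 50 to 0.097 μM final). The 90% inhibitory concentration was derived in log-phase growth.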

Compound	IC90 [nM]
Cc1cc(Nc2nccn3c(-c4ccc(OC(F)F)c(F)c4)cnc23)ccc1C(=O)N(C)CCC1CCNCC1 [Example 89, 4-((3-(4-(difluoromethoxy)-3-fluorophenyl)imidazo [1,2-a]pyrazin-8-yl)amino)-N,2-dimethyl-N-(2-(piperidin-4-yl)ethyl)benzamide hydrochloride]	230
COc1ccc(-c2cnc3c(Nc4ccc(C(=O)N(C)CCCC(=O)N5CCNCC5)c(C)c4)nccn23)cc1F [Example 4, 4-[[3-(3-fluoro-4-methoxy-phenyl)imidazo[1,2-a]pyrazin-8-yl]amino]-N,2-dimethyl-N-(4-oxo-4-piperazin-1-yl-butyl)benzamide]	290
COc1ccc(-c2cnc3c(Nc4ccc(C(=O)NCCCN)c(C(F)F)c4)nccn23)c(F)c1F [Example 165, N-(3-aminopropyl)-4-[[3-(2,3-difluoro-4-methoxy-phenyl)imidazo[1,2-a]pyrazin-8-yl]amino]-2-(difluoromethyl)benzamide; formic acid]	530

Same assay, conditions: Acinetobacter baumannii, ATCC17978, 16 h, 90% growth inhibitory concentration; Acinetobacter baumannii ATCC17978; Iso-Sensitest broth, OD 600 nm over 16h; read-out: ATCC17978 IC90

Compound	IC90 [nM]
CCc1cc(Nc2nccn3c(-c4ccc(OC)c(F)c4F)cnc23)ccc1C(=O)NCC[C@H](C)NC(=O)[C@@H](N)CCCNC(=N)N [Example 336, N-[(3S)-3-[[(2S)-2-amino-5-carbamimidamidopentanoyl]amino]butyl]-4-[[3-(2,3-difluoro-4-methoxyphenyl)imidazo[1,2-a]pyrazin-8-yl]amino]-2-ethylbenzamide; hydrochloride]	480
CCc1cc(Nc2nccn3c(-c4ccc(OC)c(F)c4F)cnc23)ccc1C(=O)NCCNC(=O)CC(O)CN (stereo not drawn) [Example 376, N-[2-[(4-amino-3-hydroxybutanoyl)amino]ethyl]-4-[[3-(2,3-difluoro-4-methoxyphenyl)imidazo[1,2-a]pyrazin-8-yl]amino]-2-ethylbenzamide]	200
CCc1cc(Nc2nccn3c(-c4ccc(OC)c(F)c4F)cnc23)ccc1C(=O)NCCNC(=O)CCN [Example 364, N-[2-(3-aminopropanoylamino)ethyl]-4-[[3-(2,3-difluoro-4-methoxyphenyl)imidazo[1,2-a]pyrazin-8-yl]amino]-2-ethylbenzamide]	90
CCc1cc(Nc2nccn3c(-c4ccc(OC)c(F)c4F)cnc23)ccc1C(=O)NCC(C)CNC(=O)[C@@H](N)CCNC(=N)N (mixture of isomers) [Example 401, rac-N-(3-((R)-2-amino-4-guanidinobutanamido)-2-methylpropyl)-4-((3-(2,3-difluoro-4-methoxyphenyl)imidazo[1,2-a]pyrazin-8-yl)amino)-2-ethylbenzamide diformate]	220
CCc1cc(Nc2nccn3c(-c4ccc(OC)c(F)c4F)cnc23)ccc1C(=O)NCC1CN(C)C1 [Example 297, 4-[[3-(2,3-difluoro-4-methoxyphenyl)imidazo[1,2-a]pyrazin-8-yl]amino]-2-ethyl-N-[(1-methylazetidin-3-yl)methyl]benzamide]	150
CCc1cc(Nc2nccn3c(-c4ccc(OC)c(F)c4F)cnc23)ccc1C(=O)NCCCNC(=O)[C@H](CCCNC(=N)N)NC(=O)CC[C@H](N)C(=O)O [Example 407, N5-((S)-1-((3-(4-((3-(2,3-difluoro-4-methoxyphenyl)imidazo[1,2-a]pyrazin-8-yl)amino)-2-ethylbenzamido)propyl)amino)-5-guanidino-1-oxopentan-2-yl)-L-glutamine trihydrochloride]	940
COc1ccc(-c2cnc3c(Nc4ccc(C(=O)NCCCN)c(CCF)c4)nccn23)c(F)c1F [Example 392, N-(3-aminopropyl)-4-[[3-(2,3-difluoro-4-methoxy-phenyl)imidazo[1,2-a]pyrazin-8-yl]amino]-2-(2-fluoroethyl)benzamide]	340
COc1ccc(-c2cnc3c(Nc4ccc(C(=O)N[C@H](C)CN)c(Cl)c4)nccn23)c(F)c1F [Example 504, #N!-[(2#R!)-1-aminopropan-2-yl]-2-chloro-4-[[3-(2,3-difluoro-4-methoxyphenyl)imidazo[1,2-a]pyrazin-8-yl]amino]benzamide;dihydro-chloride]	100
Cc1cc(Nc2nccn3c(-c4ccc(Cl)c(F)c4F)cnc23)ccc1C(=O)NCCC1CCN(C)CC1 [Example 244, 4-[[3-(4-chloro-2,3-difluorophenyl)imidazo[1,2-a]pyrazin-8-yl]amino]-2-methyl-N-[2-(1-methylpiperidin-4-yl)ethyl]benzamide]	440
COc1ccc(-c2cnc3c(Nc4ccc(C(=O)NCCCN)c(C)c4F)nccn23)c(F)c1F [Example 479, N-(3-aminopropyl)-4-((3-(2,3-difluoro-4-methoxyphenyl)imidazo[1,2-a]pyrazin-8-yl)amino)-3-fluoro-2-methylbenzamide]	490
COc1ccc(-c2cnc3c(Nc4ccc(C(=O)N(C)CCN)cc4)nccn23)cc1 [Example 264, N-(2-aminoethyl)-4-[[3-(4-methoxyphenyl)imidazo[1,2-a]pyrazin-8-yl]amino]-N-methylbenzamide; hydrochlo-ride]	5100
COc1ccc(-c2cnc3c(Nc4ccc(C(=O)NCCCCN)c(C)c4)nccn23)c(F)c1F [Example 513, N-(4-aminobutyl)-4-((3-(2,3-difluoro-4-methoxyphenyl)imidazo[1,2-a]pyrazin-8-yl)amino)-2-methylbenzamide hydrochloride]	50
COc1ccc(-c2cnc3c(Nc4ccc(C(=O)N(CCN5CCNCC5)CC(F)(F)F)c(C)c4)nccn23)cc1F [Example 172, 4-[[3-(3-fluoro-4-methoxyphenyl)imidazo[1,2-a]pyrazin-8-yl]amino]-2-methyl-N-(2-piperazin-1-ylethyl)-N-(2,2,2-trifluoroethyl)benzamide; hy-drochloride]	6200
COc1ccc(-c2cnc3c(Nc4ccc(C(=O)NCC5OCC(N)CO5)c(C)c4)nccn23)cc1 (stereo not drawn) [Example 206, N-[(5-amino-1,3-dioxan-2-yl)methyl]-4-[[3-(4-methoxyphenyl)imidazo[1,2-a]pyrazin-8-yl]amino]-2-methylbenzamide]	540
CNC(=O)c1ccc(Nc2nccn3c(-c4ccc(OC(F)F)cc4)cnc23)cc1Cl [Example 110, 2-chloro-4-((3-(4-(difluoromethoxy)phenyl)imidazo[1,2-a]pyrazin-8-yl)amino)-N-methylbenzamide]	250
CNCCN1CCc2cc(Nc3nccn4c(-c5ccc(OC)c(F)c5F)cnc34)ccc2C1=O [Example 300, 6-[[3-(2,3-difluoro-4-methoxyphenyl)imidazo[1,2-a]pyrazin-8-yl]amino]-2-[2-(methylamino)ethyl]-3,4-dihydroisoquinolin-1-one;hydrochloride]	240
CCc1cc(Nc2nccn3c(-c4ccc(OC(F)F)c(F)c4F)cnc23)ccc1C(=O)NCCNC(=O)[C@H](N)CCCNC(=N)N [Example 132, N-[2-[[(2R)-2-amino-5-guanidino-pentanoyl]amino]ethyl]-4-[[3-[4-(difluoromethoxy)-2,3-difluoro-phenyl]imidazo[1,2-a]pyrazin-8-yl]amino]-2-ethyl-benzamide formate]	230
Cc1cc(Nc2nccn3c(-c4ccc(OCC#N)c(F)c4F)cnc23)ccc1C(=O)NC[C@H](N)CNC(=O)[C@@H]1C[C@@H](O)CN1 [Example 470, (2S,4R)-N-[(2S)-2-amino-3-[[4-[[3-[4-(cyanomethoxy)-2,3-difluoro-phenyl]imidazo[1,2-a]pyrazin-8-yl]amino]-2-methyl-benzoyl]amino]propyl]-4-hydroxy-pyrrolidine-2-carboxamide; formic acid]	600
CCc1cc(Nc2nccn3c(-c4ccc(OC)c(F)c4F)cnc23)ccc1C(=O)NCc1cnn(C)c1 [Example 555, 4-[[3-(2,3-difluoro-4-methoxy-phenyl)imidazo[1,2-a]pyrazin-8-yl]amino]-2-ethyl-N-[(1-methylpyrazol-4-yl)methyl]benzamide]	150
CCc1cc(Nc2nccn3c(-c4ccc(OCC#N)c(F)c4F)cnc23)ccc1C(=O)NCCNC(=O)CCCN [Example 141, N-[2-(4-aminobutanoylamino)ethyl]-4-[[3-[4-(cyanomethoxy)-2,3-difluoro-phenyl]imidazo[1,2-a]pyrazin-8-yl]amino]-2-ethyl-benzamide formate]	70
CCc1cc(Nc2nccn3c(-c4ccc(Oc5ncccn5)c(F)c4F)cnc23)ccc1C(=O)NCC1CCN(CC2CCNC2)CC1 (stereo not drawn) [Example 549, 4-((3-(2,3-difluoro-4-(pyrimidin-2-yloxy)phenyl)imidazo[1,2-a]pyrazin-8-yl)amino)-2-ethyl-N-((1-(pyrrolidin-3-ylmethyl)piperidin-4-yl)methyl)benzamide formate]	490
COc1ccc(-c2cnc3c(Nc4ccc(C(=O)NCCNC(=O)[C@@H]5CCNC[C@@H]5O)c(C)c4)nccn23)c(F)c1F [Example 459, (3R,4R)-N-[2-[[4-[[3-(2,3-difluoro-4-methoxy-phenyl)imidazo[1,2-a]pyrazin-8-yl]amino]-2-methyl-benzoyl]amino]ethyl]-3-hydroxy-piperidine-4-carboxamide; formic acid]	940
COc1ccc(-c2cnc3c(Nc4ccc(C(=O)NCC5CCNCC5)c(C)c4)nccn23)cc1F [Example 213, 4-[[3-(3-fluoro-4-methoxyphenyl)imidazo[1,2-a]pyrazin-8-yl]amino]-2-methyl-N-(piperidin-4-ylmethyl)benzamide;hydrochlo-ride]	660
CCc1cc(Nc2nccn3c(-c4ccc(OCC#N)c(F)c4F)cnc23)ccc1C(=O)NCCNC(=O)[C@@H](N)CCCN [Example 140, 4-[[3-[4-(cyanomethoxy)-2,3-difluoro-phenyl]imidazo[1,2-a]pyrazin-8-yl]amino]-N-[2-[[(2S)-2,5-diaminopentanoyl]amino]ethyl]-2-ethyl-benzamide formate]	170
